Measured values taken from publication PMC7156458, “Synthetic biology based construction of biological activity-related library of fungal decalin-containing diterpenoid pyrones” (Nature Communications, 2020).

Molecular target: Aβ42 (Homo sapiens, UniProt P05067)
Assay: Th-T (thioflavin-T) assay of Aβ42 aggregation
Format: biochemical
Conditions: for Th-T assay plate reading, mean of three wells (Supplementary Fig. 47): source data, Ab alone and No Ab as controls

Sequence of Aβ42 (P05067 672-713): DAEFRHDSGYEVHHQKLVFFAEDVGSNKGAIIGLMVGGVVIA

For `CC(C)=CCC/C(C)=C/CC/C(C)=C/CC/C(C)=C/Cc1c(O)c(C)c(C)oc1=O` [Compound 2], the “Th-T fluorescence, mean of three wells” value (Aβ42 aggregation time course, reading M117) was 2.942, the “Th-T fluorescence, mean of three wells” value (Aβ42 aggregation time course, reading M118) was 2.9616 and the “Th-T fluorescence, mean of three wells” value (Aβ42 aggregation time course, reading M119) was 2.929. The “Th-T fluorescence, mean of three wells” value (Aβ42 aggregation time course, reading M120) was 2.963, the “Th-T fluorescence, mean of three wells” value (Aβ42 aggregation time course, reading M121) was 2.95 and the “Th-T fluorescence, mean of three wells” value (Aβ42 aggregation time course, reading M122) was 2.943. For the same molecule, the “Th-T fluorescence, mean of three wells” value (Aβ42 aggregation time course, reading M123) was 2.95, the “Th-T fluorescence, mean of three wells” value (Aβ42 aggregation time course, reading M124) was 2.945 and the “Th-T fluorescence, mean of three wells” value (Aβ42 aggregation time course, reading M125) was 2.938. For the same molecule, the “Th-T fluorescence, mean of three wells” value (Aβ42 aggregation time course, reading M126) was 2.934, the “Th-T fluorescence, mean of three wells” value (Aβ42 aggregation time course, reading M127) was 2.935 and the “Th-T fluorescence, mean of three wells” value (Aβ42 aggregation time course, reading M128) was 2.947. The “Th-T fluorescence, mean of three wells” value (Aβ42 aggregation time course, reading M129) was 2.9294, the “Th-T fluorescence, mean of three wells” value (Aβ42 aggregation time course, reading M130) was 2.914 and the “Th-T fluorescence, mean of three wells” value (Aβ42 aggregation time course, reading M131) was 2.934. The “Th-T fluorescence, mean of three wells” value (Aβ42 aggregation time course, reading M132) was 2.934, the “Th-T fluorescence, mean of three wells” value (Aβ42 aggregation time course, reading M133) was 2.945 and the “Th-T fluorescence, mean of three wells” value (Aβ42 aggregation time course, reading M134) was 2.942. The “Th-T fluorescence, mean of three wells” value (Aβ42 aggregation time course, reading M135) was 2.931, the “Th-T fluorescence, mean of three wells” value (Aβ42 aggregation time course, reading M136) was 2.912 and the “Th-T fluorescence, mean of three wells” value (Supplementary Fig. 47, reading M137) was 2.914. For the same molecule, the “Th-T fluorescence, mean of three wells” value (Supplementary Fig. 47, reading M138) was 2.931, the “Th-T fluorescence, mean of three wells” value (Supplementary Fig. 47, reading M139) was 2.919 and the “Th-T fluorescence, mean of three wells” value (Supplementary Fig. 47, reading M140) was 2.936. The “Th-T fluorescence, mean of three wells” value (Supplementary Fig. 47, reading M141) was 2.944, the “Th-T fluorescence, mean of three wells” value (Supplementary Fig. 47, reading M142) was 2.9414 and the “Th-T fluorescence, mean of three wells” value (Supplementary Fig. 47, reading M143) was 2.941. For the same molecule, the “Th-T fluorescence, mean of three wells” value (Supplementary Fig. 47, reading M144) was 2.932, the “Th-T fluorescence, mean of three wells” value (Supplementary Fig. 47, reading M145) was 2.925 and the “Th-T fluorescence, mean of three wells” value (Supplementary Fig. 47 source data, measurement M37 of time course) was 2.747. The “Th-T fluorescence, mean of three wells” value (Supplementary Fig. 47 source data, measurement M38 of time course) was 2.734, the “Th-T fluorescence, mean of three wells” value (Supplementary Fig. 47 source data, measurement M39 of time course) was 2.741 and the “Th-T fluorescence, mean of three wells” value (Supplementary Fig. 47 source data, measurement M40 of time course) was 2.757. For the same molecule, the “Th-T fluorescence, mean of three wells” value (Supplementary Fig. 47 source data, measurement M41 of time course) was 2.789, the “Th-T fluorescence, mean of three wells” value (Supplementary Fig. 47 source data, measurement M42 of time course) was 2.791 and the “Th-T fluorescence, mean of three wells” value (Supplementary Fig. 47 source data, measurement M43 of time course) was 2.8204. The “Th-T fluorescence, mean of three wells” value (Supplementary Fig. 47 source data, measurement M44 of time course) was 2.818, the “Th-T fluorescence, mean of three wells” value (Supplementary Fig. 47 source data, measurement M45 of time course) was 2.833 and the “Th-T fluorescence, mean of three wells” value (Supplementary Fig. 47 source data, measurement M46 of time course) was 2.86. For the same molecule, the “Th-T fluorescence, mean of three wells” value (Supplementary Fig. 47 source data, measurement M47 of time course) was 2.867, the “Th-T fluorescence, mean of three wells” value (Supplementary Fig. 47 source data, measurement M48 of time course) was 2.874 and the “Th-T fluorescence, mean of three wells” value (Supplementary Fig. 47 source data, measurement M49 of time course) was 2.883. The “Th-T fluorescence, mean of three wells” value (Supplementary Fig. 47 source data, measurement M50 of time course) was 2.863, the “Th-T fluorescence, mean of three wells” value (Supplementary Fig. 47 source data, measurement M51 of time course) was 2.8662 and the “Th-T fluorescence, mean of three wells” value (Supplementary Fig. 47 source data, measurement M52 of time course) was 2.876. The “Th-T fluorescence, mean of three wells” value (Supplementary Fig. 47 source data, measurement M53 of time course) was 2.889, the “Th-T fluorescence, mean of three wells” value (Supplementary Fig. 47 source data, measurement M54 of time course) was 2.875 and the “Th-T fluorescence, mean of three wells” value (Supplementary Fig. 47 source data, measurement M55 of time course) was 2.914. The “Th-T fluorescence, mean of three wells” value (Supplementary Fig. 47 source data, measurement M56 of time course) was 2.914, the “Th-T assay plate reading, mean of three wells (Supplementary Fig. 47)” value (“Th-T assay plate reading, mean” below) (measurement M1) was 0.5144 and the “Th-T assay plate reading, mean” value (measurement M2) was 0.4337. For the same molecule, the “Th-T assay plate reading, mean” value (measurement M3) was 0.4376, the “Th-T assay plate reading, mean” value (measurement M4) was 0.4602 and the “Th-T assay plate reading, mean” value (measurement M5) was 0.5047. For the same molecule, the “Th-T assay plate reading, mean” value (measurement M6) was 0.5652, the “Th-T assay plate reading, mean” value (measurement M7) was 0.6146 and the “Th-T assay plate reading, mean” value (measurement M8) was 0.6765. For the same molecule, the “Th-T assay plate reading, mean” value (measurement M9) was 0.8275, the “Th-T assay plate reading, mean” value (measurement M10) was 1.067 and the “Th-T assay plate reading, mean” value (measurement M11) was 1.395. For the same molecule, the “Th-T assay plate reading, mean” value (measurement M12) was 1.75, the “Th-T assay plate reading, mean” value (measurement M13) was 2.113 and the “Th-T assay plate reading, mean” value (measurement M14) was 2.291. For the same molecule, the “Th-T assay plate reading, mean” value (measurement M15) was 2.38, the “Th-T assay plate reading, mean” value (measurement M16) was 2.421 and the “Th-T fluorescence, mean of three wells” value (reading M17, Supplementary Fig. 47 source data) was 2.473. For the same molecule, the “Th-T fluorescence, mean of three wells” value (reading M18, Supplementary Fig. 47 source data) was 2.4977, the “Th-T fluorescence, mean of three wells” value (reading M19, Supplementary Fig. 47 source data) was 2.533 and the “Th-T fluorescence, mean of three wells” value (reading M20, Supplementary Fig. 47 source data) was 2.556. For the same molecule, the “Th-T fluorescence, mean of three wells” value (reading M21, Supplementary Fig. 47 source data) was 2.585, the “Th-T fluorescence, mean of three wells” value (reading M22, Supplementary Fig. 47 source data) was 2.595 and the “Th-T fluorescence, mean of three wells” value (reading M23, Supplementary Fig. 47 source data) was 2.641. The “Th-T fluorescence, mean of three wells” value (reading M24, Supplementary Fig. 47 source data) was 2.62, the “Th-T fluorescence, mean of three wells” value (reading M25, Supplementary Fig. 47 source data) was 2.6309 and the “Th-T fluorescence, mean of three wells” value (reading M26, Supplementary Fig. 47 source data) was 2.664. The “Th-T fluorescence, mean of three wells” value (reading M27, Supplementary Fig. 47 source data) was 2.655, the “Th-T fluorescence, mean of three wells” value (reading M28, Supplementary Fig. 47 source data) was 2.667 and the “Th-T fluorescence, mean of three wells” value (reading M29, Supplementary Fig. 47 source data) was 2.665. For the same molecule, the “Th-T fluorescence, mean of three wells” value (reading M30, Supplementary Fig. 47 source data) was 2.687, the “Th-T fluorescence, mean of three wells” value (reading M31, Supplementary Fig. 47 source data) was 2.687 and the “Th-T fluorescence, mean of three wells” value (reading M32, Supplementary Fig. 47 source data) was 2.686. For the same molecule, the “Th-T fluorescence, mean of three wells” value (reading M33, Supplementary Fig. 47 source data) was 2.738, the “Th-T fluorescence, mean of three wells” value (reading M34, Supplementary Fig. 47 source data) was 2.752 and the “Th-T fluorescence, mean of three wells” value (reading M35, Supplementary Fig. 47 source data) was 2.742. For the same molecule, the “Th-T fluorescence, mean of three wells” value (reading M36, Supplementary Fig. 47 source data) was 2.736, the “Th-T fluorescence, mean of three wells” value (time course, reading M57) was 2.932 and the “Th-T fluorescence, mean of three wells” value (time course, reading M58) was 2.915. For the same molecule, the “Th-T fluorescence, mean of three wells” value (time course, reading M59) was 2.925, the “Th-T fluorescence, mean of three wells” value (time course, reading M60) was 2.927 and the “Th-T fluorescence, mean of three wells” value (time course, reading M61) was 2.927. The “Th-T fluorescence, mean of three wells” value (time course, reading M62) was 2.927, the “Th-T fluorescence, mean of three wells” value (time course, reading M63) was 2.935 and the “Th-T fluorescence, mean of three wells” value (time course, reading M64) was 2.936. The “Th-T fluorescence, mean of three wells” value (time course, reading M65) was 2.95, the “Th-T fluorescence, mean of three wells” value (time course, reading M66) was 2.938 and the “Th-T fluorescence, mean of three wells” value (time course, reading M67) was 2.956. The “Th-T fluorescence, mean of three wells” value (time-course reading M97, Supplementary Fig. 47 source data) was 2.938, the “Th-T fluorescence, mean of three wells” value (time-course reading M98, Supplementary Fig. 47 source data) was 2.952 and the “Th-T fluorescence, mean of three wells” value (time-course reading M99, Supplementary Fig. 47 source data) was 2.942. The “Th-T fluorescence, mean of three wells” value (time-course reading M100, Supplementary Fig. 47 source data) was 2.953, the “Th-T fluorescence, mean of three wells” value (time-course reading M101, Supplementary Fig. 47 source data) was 2.966 and the “Th-T fluorescence, mean of three wells” value (time-course reading M102, Supplementary Fig. 47 source data) was 2.943. For the same molecule, the “Th-T fluorescence, mean of three wells” value (time-course reading M103, Supplementary Fig. 47 source data) was 2.949, the “Th-T fluorescence, mean of three wells” value (time-course reading M104, Supplementary Fig. 47 source data) was 2.951 and the “Th-T fluorescence, mean of three wells” value (time-course reading M105, Supplementary Fig. 47 source data) was 2.946. For the same molecule, the “Th-T fluorescence, mean of three wells” value (time-course reading M106, Supplementary Fig. 47 source data) was 2.949, the “Th-T fluorescence, mean of three wells” value (time-course reading M107, Supplementary Fig. 47 source data) was 2.931 and the “Th-T fluorescence, mean of three wells” value (time-course reading M108, Supplementary Fig. 47 source data) was 2.953. For the same molecule, the “Th-T fluorescence, mean of three wells” value (time-course reading M109, Supplementary Fig. 47 source data) was 2.942, the “Th-T fluorescence, mean of three wells” value (time-course reading M110, Supplementary Fig. 47 source data) was 2.939 and the “Th-T fluorescence, mean of three wells” value (time-course reading M111, Supplementary Fig. 47 source data) was 2.961. For the same molecule, the “Th-T fluorescence, mean of three wells” value (time-course reading M112, Supplementary Fig. 47 source data) was 2.955, the “Th-T fluorescence, mean of three wells” value (time-course reading M113, Supplementary Fig. 47 source data) was 2.9565 and the “Th-T fluorescence, mean of three wells” value (time-course reading M114, Supplementary Fig. 47 source data) was 2.9516. The “Th-T fluorescence, mean of three wells” value (time-course reading M115, Supplementary Fig. 47 source data) was 2.943 and the “Th-T fluorescence, mean of three wells” value (time-course reading M116, Supplementary Fig. 47 source data) was 2.94.
